Patent US20100144779A1, “Marine Alkalod Makaluvamines and Derivatives Thereof” (THE UAB RESEARCH FOUNDATION, priority 2007, published 2010)

Tests used:
SR = assay: NCI60 cell line screen (SRB); assay type: cell-based, human; details: Leukemia, 48 h
Description: (§1) This panel implements the NCI60 cell line screen, including leukemia, non-small cell lung cancer, colon cancer, central nervous system cancer, melanoma, ovarian cancer, renal cancer, prostate cancer and breast cancer. The cell lines tested are specified in Table 3.
(§2) Generally, the human tumor cell lines of the cancer screening panel are grown in RPMI 1640 medium containing 5% fetal bovine serum and 2 mM L-glutamine. For a typical screening experiment, cells are inoculated into 96 well microtiter plates in 100 μL at plating densities ranging from 5,000 to 40,000 cells/well depending on the doubling time of individual cell lines. After cell inoculation, the microtiter plates are incubated at 37° C., 5% CO2, 95% air and 100% relative humidity for 24 h prior to addition of experimental drugs. After 24 h, two plates of each cell line are fixed in situ with TCA, to represent a measurement of the cell population for each cell line at the time of drug addition (Tz). Experimental drugs are solubilized in dimethyl sulfoxide at 400-fold the desired final maximum test concentration and stored frozen prior to use. At the time of drug addition, an aliquot of frozen concentrate is thawed and diluted to twice the desired final maximum test concentration with complete medium containing 50 μg/ml gentamicin. Additional four, 10-fold or ½ log serial dilutions are made to provide a total of five drug concentrations plus control. Aliquots of 100 μl of these different drug dilutions are added to the appropriate microtiter wells already containing 100 μl of medium, resulting in the required final drug concentrations.
(§3) Following drug addition, the plates are incubated for an additional 48 h at 37° C., 5% CO2, 95% air, and 100% relative humidity. For adherent cells, the assay is terminated by the addition of cold TCA. Cells are fixed in situ by the gentle addition of 50 μl of cold 50% (w/v) TCA (final concentration, 10% TCA) and incubated for 60 minutes at 4° C. The supernatant is discarded, and the plates are washed five times with tap water and air dried. Sulforhodamine B (SRB) solution (100 μl) at 0.4% (w/v) in 1% acetic acid is added to each well, and plates are incubated for 10 minutes at room temperature. After staining, unbound dye is removed by washing five times with 1% acetic acid and the plates are air dried. Bound stain is subsequently solubilized with 10 mM trizma base, and the absorbance is read on an automated plate reader at a wavelength of 515 nm. For suspension cells, the methodology is the same except that the assay is terminated by fixing settled cells at the bottom of the wells by gently adding 50 μl of 80% TCA (final concentration, 16% TCA). Using the seven absorbance measurements (time zero, Tz, control growth, (control), and test growth in the presence of drug at the five concentration levels (Ti)), the percentage growth is calculated at each of the drug concentrations levels. Percentage growth inhibition is calculated as:
(§4) [(Ti−Tz)/(C−Tz)]×100 for concentrations for which Ti>/=Tz
(§5) [(Ti−Tz)/Tz]×100 for concentrations for which Ti<Tz.

SF-295 = assay: NCI60 cell line screen (SRB); assay type: cell-based, human; details: SF-295, CNS Cancer, 48 h
Description: as §1, §2, §3, §4, §5

HCT-15 = assay: NCI60 cell line screen (SRB); assay type: cell-based, human; details: HCT-15, Colon Cancer, 48 h
Description: as §1, §2, §3, §4, §5

K-562 = assay: NCI60 cell line screen (SRB); assay type: cell-based, human; details: K-562, Leukemia, 48 h
Description: as §1, §2, §3, §4, §5

T-47D = assay: NCI60 cell line screen (SRB); assay type: cell-based, human; details: Breast Cancer, 48 h
Description: as §1, §2, §3, §4, §5

CCRF-CEM = assay: NCI60 cell line screen (SRB); assay type: cell-based, human; details: Leukemia, 48 h
Description: as §1, §2, §3, §4, §5

KM12 = assay: NCI60 cell line screen (SRB); assay type: cell-based, human; details: KM12, Colon Cancer, 48 h
Description: as §1, §2, §3, §4, §5

UO-31 = assay: NCI60 cell line screen (SRB); assay type: cell-based, human; details: UO-31, Renal Cancer, 48 h
Description: as §1, §2, §3, §4, §5

NCI/ADR-RES = assay: NCI60 cell line screen (SRB); assay type: cell-based, human; details: Breast Cancer, 48 h
Description: as §1, §2, §3, §4, §5

SK-OV-3 = assay: NCI60 cell line screen (SRB); assay type: cell-based, human; details: SK-OV-3, Ovarian Cancer, 48 h
Description: as §1, §2, §3, §4, §5

PC-3 = assay: NCI60 cell line screen (SRB); assay type: cell-based, human; details: PC-3, Prostate Cancer, 48 h
Description: as §1, §2, §3, §4, §5

NCIH332M = assay: NCI60 cell line screen (SRB); assay type: cell-based, human; details: Non-Small Cell Lung Cancer, 48 h
Description: as §1, §2, §3, §4, §5

OVCAR8 = assay: NCI60 cell line screen (SRB); assay type: cell-based, human; details: OVCAR8, Ovarian Cancer, 48 h
Description: as §1, §2, §3, §4, §5

BT-459 = assay: NCI60 cell line screen (SRB); assay type: cell-based, human; details: BT-459, Breast Cancer, 48 h
Description: as §1, §2, §3, §4, §5

NCI-H460 = assay: NCI60 cell line screen (SRB); assay type: cell-based, human; details: NCI-H460, Non-Small Cell Lung Cancer, 48 h
Description: as §1, §2, §3, §4, §5

TK-10 = assay: NCI60 cell line screen (SRB); assay type: cell-based, human; details: TK-10, Renal Cancer, 48 h
Description: as §1, §2, §3, §4, §5

U251 = assay: NCI60 cell line screen (SRB); assay type: cell-based, human; details: U251, CNS Cancer, 48 h
Description: as §1, §2, §3, §4, §5

topoisomerase II = target: T1, topoisomerase II (Homo sapiens, UniProt P11388); assay: Topoisomerase II drug screening kit (relaxation of plasmid DNA); assay type: biochemical; design: key to Topoisomerase II Inhibition: — none; + low; ++ moderate; +++ strong; details: for Topoisomerase II Inhibition: 100 μM drug compound, topoisomerase II (4U), 500 ng plasmid DNA; for inhibition of topoisomerase II catalytic activity (in words): 100 μM makaluvamine derivative
T1 construct: purchased TopoGEN, Inc., Port Orange, Fla
T1 sequence (P11388 whole entry): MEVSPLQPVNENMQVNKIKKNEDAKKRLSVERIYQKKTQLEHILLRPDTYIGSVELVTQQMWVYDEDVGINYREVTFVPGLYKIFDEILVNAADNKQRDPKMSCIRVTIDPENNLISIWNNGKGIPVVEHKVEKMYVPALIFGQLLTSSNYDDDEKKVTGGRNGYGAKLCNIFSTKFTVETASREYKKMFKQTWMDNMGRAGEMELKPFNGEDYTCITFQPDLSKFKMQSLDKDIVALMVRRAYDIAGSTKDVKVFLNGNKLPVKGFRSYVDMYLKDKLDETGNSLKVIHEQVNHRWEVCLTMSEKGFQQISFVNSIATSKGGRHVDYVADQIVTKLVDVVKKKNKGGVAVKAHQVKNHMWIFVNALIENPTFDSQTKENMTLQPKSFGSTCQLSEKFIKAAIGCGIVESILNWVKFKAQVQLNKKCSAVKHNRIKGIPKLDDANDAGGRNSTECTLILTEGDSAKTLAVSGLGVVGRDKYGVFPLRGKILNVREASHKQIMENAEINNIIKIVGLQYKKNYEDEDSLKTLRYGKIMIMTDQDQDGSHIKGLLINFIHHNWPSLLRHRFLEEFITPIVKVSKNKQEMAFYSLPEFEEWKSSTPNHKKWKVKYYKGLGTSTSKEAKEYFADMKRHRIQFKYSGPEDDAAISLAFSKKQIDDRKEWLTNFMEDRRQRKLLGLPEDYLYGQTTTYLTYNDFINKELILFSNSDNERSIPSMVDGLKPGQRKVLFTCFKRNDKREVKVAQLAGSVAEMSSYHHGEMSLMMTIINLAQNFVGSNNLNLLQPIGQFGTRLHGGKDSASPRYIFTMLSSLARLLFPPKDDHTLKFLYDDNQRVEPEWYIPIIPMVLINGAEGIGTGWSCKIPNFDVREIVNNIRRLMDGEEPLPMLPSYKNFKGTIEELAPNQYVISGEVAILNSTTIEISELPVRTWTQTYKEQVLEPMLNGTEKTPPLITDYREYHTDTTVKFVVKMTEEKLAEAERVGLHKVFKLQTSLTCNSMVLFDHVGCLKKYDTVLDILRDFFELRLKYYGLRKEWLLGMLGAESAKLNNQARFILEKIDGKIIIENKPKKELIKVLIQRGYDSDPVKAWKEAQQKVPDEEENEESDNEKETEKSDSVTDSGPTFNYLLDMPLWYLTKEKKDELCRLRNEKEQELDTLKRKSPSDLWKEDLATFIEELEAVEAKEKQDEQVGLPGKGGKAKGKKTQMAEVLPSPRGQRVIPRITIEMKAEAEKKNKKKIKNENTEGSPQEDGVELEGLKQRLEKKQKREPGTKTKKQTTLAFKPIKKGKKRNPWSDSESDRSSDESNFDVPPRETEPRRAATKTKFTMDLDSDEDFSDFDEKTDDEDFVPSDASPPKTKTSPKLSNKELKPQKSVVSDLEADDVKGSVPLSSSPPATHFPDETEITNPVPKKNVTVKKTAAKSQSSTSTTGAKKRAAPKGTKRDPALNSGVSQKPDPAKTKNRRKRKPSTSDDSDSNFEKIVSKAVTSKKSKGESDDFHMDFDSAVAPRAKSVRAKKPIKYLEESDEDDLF
Description: In order to determine the effect of the makaluvamine derivatives of the present disclosure, the synthesized makaluvamine derivatives were screened for their ability to inhibit topoisomerase II activity in vitro. Topoisomerase II functions by generating a double-stranded DNA break followed by resealing of the break. Topoisomerase II inhibitors interfere with the breakage-rejoining reaction thereby trapping the enzyme in a cleavage complex. In order to determine if the disclosed makaluvamine derivatives inhibited topoisomerase II activity, nine of the derivatives were tested for topoisomerase II inhibitory activity using a topoisomerase-II drug screening kit (TopoGEN, Inc., Port Orange, Fla.) according to the manufacturer's instructions. The screening kit uses a supercoiled plasmid DNA substrate (pRYG) which contains one topoisomerase II cleavage/recognition site. […] Relaxed DNA was separated using non-ethidium bromide (EtBr) agarose gels, then stained with EtBr and quantified using Kodak Gel Logic Imaging System and Molecular Imaging software (Eastman Kodak Co., Rochester, N.Y.). Inhibition of relaxation of plasmid DNA or catalytic activity was reported as; − none, + low, ++ moderate, or +++ strong.

RPMO-8226 = assay: NCI60 cell line screen (SRB); assay type: cell-based, human; details: RPMO-8226, Leukemia, 48 h
Description: as §1, §2, §3, §4, §5

SMILES | GI50 (SR; Homo sapiens) | GI50 (SF-295; Homo sapiens) | GI50 (HCT-15; Homo sapiens) | GI50 (K-562; Homo sapiens, K562) | GI50 (T-47D; Homo sapiens, T47D) | GI50 (CCRF-CEM; Homo sapiens) | GI50 (KM12; Homo sapiens) | GI50 (UO-31; Homo sapiens) | GI50 (NCI/ADR-RES; Homo sapiens) | GI50 (SK-OV-3; Homo sapiens) | GI50 (PC-3; Homo sapiens) | GI50 (NCIH332M; Homo sapiens, NCI-H332M) | GI50 (OVCAR8; Homo sapiens, OVCAR-8) | GI50 (BT-459; Homo sapiens) | GI50 (NCI-H460; Homo sapiens) | GI50 (TK-10; Homo sapiens) | GI50 (U251; Homo sapiens, U-251) | Topoisomerase II Inhibition (topoisomerase II) | inhibition of topoisomerase II catalytic activity (in words) (topoisomerase II) | GI50 (SR) | further results
COc1ccc(CCNC2=CC3=NCCc4c[nH]c(c43)C2=O)cc1OC.O=C(O)C(F)(F)F [Compound 20] | 5690 nM | 1840 nM | 2650 nM | 16900 nM | 2490 nM | 10600 nM | 2230 nM | 7.11 µM | 12.4 µM | 14.6 µM | 7.62 µM | 2840 nM | 1790 nM | 4.53 µM | 1420 nM | 5.1 µM | 3.44 µM |  |  |  | 
O=C1C(NCCc2ccccc2)=CC2=NCCc3c[nH]c1c32 [Compound 4d] |  |  |  |  |  |  |  |  |  |  |  |  |  |  |  |  |  | + | comparable to etoposide and m-AMSA |  | 
O=C(O)C(F)(F)F.O=C1C(NCCc2ccc3c(c2)OCO3)=CC2=NCCc3c[nH]c1c32 [Compound 6] | 2500 nM | 1870 nM | 1860 nM | 3430 nM | 2970 nM | 2970 nM | 2290 nM | 5.84 µM | 1.76 µM | 9.7 µM | 5.93 µM | 2820 nM | 1620 nM | 3.07 µM | 1010 nM | 4.51 µM | 3.05 µM |  |  |  | 
CNC1=CC2=NCCc3c[nH]c(c32)C1=O [Compound 4a] |  |  |  |  |  |  |  |  |  |  |  |  |  |  |  |  |  | — |  | 3120 nM | GI50 (SF-295): 1210 nM; GI50 (HCT-15): 5090 nM; GI50 (K-562): 2190 nM; GI50 (T-47D): 3500 nM; GI50 (RPMO-8226): 5990 nM; GI50 (CCRF-CEM): 2970 nM; GI50 (KM12): 3830 nM; GI50 (UO-31): 14.6 µM; GI50 (NCI/ADR-RES): 9.33 µM; GI50 (SK-OV-3): 18.7 µM; GI50 (PC-3): 3.61 µM; GI50 (NCIH332M): 2890 nM; GI50 (OVCAR8): 3190 nM; GI50 (BT-459): 7.38 µM; GI50 (NCI-H460): 2160 nM; GI50 (TK-10): 15.4 µM; GI50 (U251): 4.2 µM
O=C(O)C(F)(F)F.O=C1C(NCc2ccc(F)cc2)=CC2=NCCc3c[nH]c1c32 [Compound 28] | 1210 nM | 1060 nM | 1480 nM | 1070 nM | 633 nM | 1430 nM | 2020 nM | 2.59 µM | 3.11 µM | 3.15 µM | 1.57 µM | 1170 nM | 1970 nM | 3.14 µM | 816 nM | 3.19 µM | 1.99 µM |  |  |  | GI50 (RPMO-8226; Homo sapiens): 559 nM
O=C1C(NCc2ccccc2)=CC2=NCCc3c[nH]c1c32 [Compound 4c] |  |  |  |  |  |  |  |  |  |  |  |  |  |  |  |  |  | ++ | comparable to etoposide and m-AMSA | 1750 nM | GI50 (SF-295): 1120 nM; GI50 (HCT-15): 1390 nM; GI50 (K-562): 2360 nM; GI50 (T-47D): 523 nM; GI50 (RPMO-8226): 1360 nM; GI50 (CCRF-CEM): 900 nM; GI50 (KM12): 2060 nM; GI50 (UO-31): 2.63 µM; GI50 (NCI/ADR-RES): 3.51 µM; GI50 (SK-OV-3): 7.01 µM; GI50 (PC-3): 1.54 µM; GI50 (NCIH332M): 628 nM; GI50 (OVCAR8): 2080 nM; GI50 (BT-459): 4.58 µM; GI50 (NCI-H460): 1510 nM; GI50 (TK-10): 4.72 µM; GI50 (U251): 2.66 µM
